The target in assay [1] is Ribosomal protein S6 kinase alpha-4 (Homo sapiens, UniProt O75676).
For assay [2], the target named is T1, Serine/threonine-protein kinase Nek5 (Homo sapiens, UniProt Q6P3R8).
T1 sequence (Q6P3R8 whole entry): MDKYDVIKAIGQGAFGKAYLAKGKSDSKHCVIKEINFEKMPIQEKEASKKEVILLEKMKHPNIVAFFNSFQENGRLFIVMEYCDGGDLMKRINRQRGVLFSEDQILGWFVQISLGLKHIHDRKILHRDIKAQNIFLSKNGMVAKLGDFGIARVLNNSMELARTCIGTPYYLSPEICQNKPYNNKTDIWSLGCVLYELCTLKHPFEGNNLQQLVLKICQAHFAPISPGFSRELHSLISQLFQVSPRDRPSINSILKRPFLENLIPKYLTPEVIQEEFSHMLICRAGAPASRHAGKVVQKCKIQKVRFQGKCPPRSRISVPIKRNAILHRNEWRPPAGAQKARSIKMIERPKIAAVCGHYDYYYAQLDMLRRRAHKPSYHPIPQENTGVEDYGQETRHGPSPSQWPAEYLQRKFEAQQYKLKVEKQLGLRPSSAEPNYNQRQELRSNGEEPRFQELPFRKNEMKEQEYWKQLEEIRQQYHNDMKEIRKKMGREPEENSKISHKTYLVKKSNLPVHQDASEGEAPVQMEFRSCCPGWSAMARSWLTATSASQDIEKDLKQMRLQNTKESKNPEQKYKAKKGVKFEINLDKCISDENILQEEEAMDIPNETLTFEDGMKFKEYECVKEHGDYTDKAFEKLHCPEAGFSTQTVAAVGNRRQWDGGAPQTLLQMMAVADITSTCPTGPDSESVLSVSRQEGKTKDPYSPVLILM

In assay [3] the target is RAF proto-oncogene serine/threonine-protein kinase (Homo sapiens, UniProt P04049).
In assay [4] the target is T2, Phosphatidylinositol 5-phosphate 4-kinase type-2 beta (Homo sapiens, UniProt P78356).
T2 sequence (P78356 whole entry): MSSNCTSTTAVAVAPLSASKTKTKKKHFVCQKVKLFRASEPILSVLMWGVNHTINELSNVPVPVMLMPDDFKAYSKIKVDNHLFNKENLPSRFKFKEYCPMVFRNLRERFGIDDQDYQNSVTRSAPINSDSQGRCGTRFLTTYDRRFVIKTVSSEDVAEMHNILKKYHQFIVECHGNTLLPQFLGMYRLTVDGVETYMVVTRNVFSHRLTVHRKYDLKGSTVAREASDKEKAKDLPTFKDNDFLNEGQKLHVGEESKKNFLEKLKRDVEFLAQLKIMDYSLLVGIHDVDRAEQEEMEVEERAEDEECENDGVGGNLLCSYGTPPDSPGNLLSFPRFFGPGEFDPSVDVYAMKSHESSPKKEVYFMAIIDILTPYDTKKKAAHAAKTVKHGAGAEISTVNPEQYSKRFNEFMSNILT

The target in assay [5] is Receptor-type tyrosine-protein kinase FLT3 (Homo sapiens, UniProt P36888, D835Y).
Assay [6] addresses Mitogen-activated protein kinase 3 (Homo sapiens, UniProt P27361).
The target in assay [7] is Bone morphogenetic protein receptor type-1A (Homo sapiens, UniProt P36894).
Assay [8] deals with Casein kinase I isoform epsilon (Homo sapiens, UniProt P49674).
In assay [9] the target is Mitogen-activated protein kinase 4 (Homo sapiens, UniProt P31152).
The target of assay [10] is Casein kinase II subunit alpha' (Homo sapiens, UniProt P19784).
Assay [11] concerns the target RAC-gamma serine/threonine-protein kinase (Homo sapiens, UniProt Q9Y243).
The target in assay [12] is Mitogen-activated protein kinase kinase kinase 10 (Homo sapiens, UniProt Q02779).
Assay [13] deals with Tyrosine-protein kinase Lyn (Homo sapiens, UniProt P07948).
Assay [14] addresses Serine/threonine-protein kinase 32B (Homo sapiens, UniProt Q9NY57).
For assay [15], the target named is T3, Tyrosine-protein kinase ITK/TSK (Homo sapiens, UniProt Q08881).
T3 sequence (Q08881 whole entry): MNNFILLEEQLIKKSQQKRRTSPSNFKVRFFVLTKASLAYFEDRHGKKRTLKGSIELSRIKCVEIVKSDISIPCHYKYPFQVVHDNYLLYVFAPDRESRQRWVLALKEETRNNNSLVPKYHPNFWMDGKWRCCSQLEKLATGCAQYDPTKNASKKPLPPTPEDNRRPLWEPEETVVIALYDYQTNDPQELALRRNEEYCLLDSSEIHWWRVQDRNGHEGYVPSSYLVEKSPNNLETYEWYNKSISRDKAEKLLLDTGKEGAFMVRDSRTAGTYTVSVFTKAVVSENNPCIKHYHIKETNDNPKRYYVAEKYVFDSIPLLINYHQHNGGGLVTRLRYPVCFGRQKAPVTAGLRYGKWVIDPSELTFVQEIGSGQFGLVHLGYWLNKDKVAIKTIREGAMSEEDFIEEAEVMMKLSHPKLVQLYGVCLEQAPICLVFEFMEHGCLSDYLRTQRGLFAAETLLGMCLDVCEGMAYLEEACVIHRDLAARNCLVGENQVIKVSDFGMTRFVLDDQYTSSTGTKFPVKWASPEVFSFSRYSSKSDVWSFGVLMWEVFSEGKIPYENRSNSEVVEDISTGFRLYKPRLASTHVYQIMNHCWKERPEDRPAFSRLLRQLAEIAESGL

Assay [16] deals with Cyclin-dependent kinase 11B (Homo sapiens, UniProt P21127).
Assay [17] concerns the target Tyrosine-protein kinase ABL2 (Homo sapiens, UniProt P42684).

In general, Kd refers to the concentration at which binding is half-saturated.

As to `COCC(=O)NC/C=C/c1ccc2ncnc(Nc3ccc(Oc4ccc(C)nc4)c(C)c3)c2c1` [CP-724714], the Kd in assay [1], in assay [2], in assay [3], in [4], in assay [5] and in [6] was over 10 µM throughout. Besides, the Kd in assay [7], in assay [8], in assay [9], in [10], in [11] and in [12] was over 10 µM each time. In addition, the Kd in [13], in assay [14], in [15], in assay [16] and in [17] was over 10 µM in each case.
As to `Nc1nc(Nc2ccc(S(N)(=O)=O)cc2)nn1C(=O)c1c(F)cccc1F` [JNJ-7706621], the dissociation constant (Kd) in [1] is over 10 µM; in [2] it was over 10 µM; in assay [3] it was over 10 µM; in assay [7], over 10 µM; in assay [8], 3.6 µM; in [9] it was 1.6 µM. The Kd in [11], in [13], in [14], in [15] and in assay [17] was over 10 µM each time.
For `CCOc1cc2ncc(C#N)c(Nc3ccc(F)c(Cl)c3)c2cc1NC(=O)/C=C/CN(C)C` [PELITINIB], the Kd in assay [1] was over 10 µM; in [2], over 10 µM; in assay [3] it was over 10 µM; in assay [5], 2.8 µM; in [6], over 10 µM; in assay [7], over 10 µM. The Kd in assay [8] is 0.1 µM; in assay [9] it was over 10 µM; in assay [10], over 10 µM; in assay [11], over 10 µM; in [12] it was over 10 µM; in assay [13], 0.72 µM. The values for the Kd in assay [14] and in assay [16] were 6 µM and over 10 µM, respectively.
For `Oc1ccc(-c2nc(-c3ccncc3)c(-c3ccc(F)cc3)[nH]2)cc1` [SB-202190], the Kd in [1], in assay [2], in [4], in [5], in [6] and in assay [7] was over 10 µM in each case. Further, the equilibrium dissociation constant (Kd) in [8] was 0.17 µM; in assay [9] it was over 10 µM; in [10], over 10 µM; in [11] it was over 10 µM; in assay [12] it was over 10 µM; in [13], over 10 µM. The Kd in [14] was 4.9 µM; in [15], over 10 µM; in [16], over 10 µM; in assay [17], over 10 µM.
Consider `NC(=O)c1ccc(-c2nc(-c3ccc4c(c3)OCO4)c(-c3ccccn3)[nH]2)cc1` [SB-431542], for which the Kd in [1], in assay [2], in [3], in [4], in assay [6] and in [7] was over 10 µM in each case. Besides, the Kd in assay [9], in assay [10], in [11], in assay [12], in [13] and in assay [14] was over 10 µM each time. Also, the Kd in assay [15], in assay [16] and in [17] was over 10 µM throughout.
